According to the NIST ThermoML archive (doi:10.1016/j.jct.2014.02.005):
± gives the expanded uncertainty stated by the source.

Conditions: 101.33 kPa, Liquid, Vibrating tube method

mass density (313.2 K) [kg/m3] | Structure (SMILES) | mass density (288.2 K) [kg/m3] | mass density (298.2 K) [kg/m3]
1026.72 ± 1 | CC(=O)O [acetic acid] | 1055.01 ± 1 | 1043.67 ± 1
992.13 ± 1 | O [water] | – | –

Structure (SMILES) | mass density (313.2 K) [kg/m3] | mass density (288.2 K) [kg/m3] | mass density (298.2 K) [kg/m3]
Cc1ccccc1 [toluene] | 848.23 ± 1 | 871.92 ± 1 | 862.49 ± 1
